From US20260138990A1, “TRICYCLIC FUSED IMIDAZOLE COMPOUNDS AS CD38 MODULATORS AND USES THEREOF” (AEOVIAN PHARMACEUTICALS, INC., priority 2023, published 2026)

Legend:
human CD38 = molecular target: T1, human CD38 (Homo sapiens, UniProt P28907); assay: NAD+ cyclase activity assay with human recombinant CD38 protein (ε-NAD fluorescence); type: biochemical; details: 1.9 nM human CD38, substrate ε-NAD, 30 min preincubation, fluorescence 300/410 nm
T1 construct: purchased Bio-Techne GmbH AVI2404
T1 sequence (P28907 1-300): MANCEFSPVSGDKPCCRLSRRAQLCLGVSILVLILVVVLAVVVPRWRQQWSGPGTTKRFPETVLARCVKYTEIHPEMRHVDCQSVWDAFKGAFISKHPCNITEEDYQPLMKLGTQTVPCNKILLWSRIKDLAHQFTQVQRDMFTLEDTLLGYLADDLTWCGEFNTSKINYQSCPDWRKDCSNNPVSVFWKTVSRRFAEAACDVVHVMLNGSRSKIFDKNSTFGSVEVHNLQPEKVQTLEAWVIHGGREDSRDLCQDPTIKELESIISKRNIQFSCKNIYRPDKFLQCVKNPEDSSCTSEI
Outline: (§1)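 Twelve-point threefold compound dilutions were given 30 min at room temperature with 0.6 nM mouse or 1.9 nM human CD38 before […] ε-NAD was added (pH 7.5 HEPES/sucrose/Tween buffer). The rate came from the linear-phase slope of ex 300/em 410 nm fluorescence against vehicle and no-CD38 controls.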

mouse CD38 = molecular target: T2, mouse CD38 (Mus musculus, UniProt P56528); assay: NAD+ cyclase activity assay with mouse recombinant CD38 protein (ε-NAD fluorescence); type: biochemical; details: 0.6 nM mouse CD38, substrate ε-NAD, 30 min preincubation, fluorescence 300/410 nm
T2 construct: purchased Bio-Techne GmbH 4947-AC
T2 sequence (P56528 1-304): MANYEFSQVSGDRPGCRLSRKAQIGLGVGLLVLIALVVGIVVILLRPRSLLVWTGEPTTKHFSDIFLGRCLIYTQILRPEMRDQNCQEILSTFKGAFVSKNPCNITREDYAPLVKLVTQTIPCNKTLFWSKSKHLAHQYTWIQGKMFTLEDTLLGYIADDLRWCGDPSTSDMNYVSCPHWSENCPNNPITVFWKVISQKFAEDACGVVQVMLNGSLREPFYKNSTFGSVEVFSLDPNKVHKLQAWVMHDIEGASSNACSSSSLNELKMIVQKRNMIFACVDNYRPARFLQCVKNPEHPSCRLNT
Outline: as §1

SMILES	IC50 (human CD38) [nM]	IC50 (mouse CD38) [nM]
COCC1COc2ncc(NC(=O)c3ccc4c(c3)-c3cncn3CCO4)cc2O1 (stereo not drawn) [Compound 145A, N-(2-(Methoxymethyl)-2,3-dihydro-[1,4]dioxino[2,3-b]pyridin-7-yl)-5,6-dihydrobenzo[f]imidazo[1,5-d][1,4]oxazepine-10-carboxamide]	< 30	1 to 10
CS(=O)(=O)C1CCC(NC(=O)c2ccc3c(c2)-c2cncn2CCO3)CC1 (stereo not drawn) [Compound 146A, N-(4-(Methylsulfonyl)cyclohexyl)-5,6-dihydrobenzo[f]imidazo[1,5-d][1,4]oxazepine-10-carboxamide]	30 to 100	10 to 100
O=C(N[C@H]1CC[C@H](O[C@H]2C[C@@H](F)C2)CC1)c1ccc2c(c1)-c1cncn1CCO2 [Compound 147A, N-((1r,4r)-4-((1s,3s)-3-Fluorocyclobutoxy)cyclohexyl)-5,6-dihydrobenzo[f]imidazo[1,5-d][1,4]oxazepine-10-carboxamide]	< 30	1 to 10
O=C(N[C@H]1CC[C@H](O[C@H]2C[C@H](F)C2)CC1)c1ccc2c(c1)-c1cncn1CCO2 [Compound 148A, N-((1r,4r)-4-((1r,3r)-3-Fluorocyclobutoxy)cyclohexyl)-5,6-dihydrobenzo[f]imidazo[1,5-d][1,4]oxazepine-10-carboxamide]	< 30	1 to 10
O=C(N[C@H]1CC[C@@H](O[C@H]2C[C@@H](F)C2)CC1)c1ccc2c(c1)-c1cncn1CCO2 [Compound 149A, N-((1s,4s)-4-((1s,3s)-3-Fluorocyclobutoxy)cyclohexyl)-5,6-dihydrobenzo[f]imidazo[1,5-d][1,4]oxazepine-10-carboxamide]	100 to 1000	10 to 100
O=C(N[C@H]1CC[C@@H](O[C@H]2C[C@H](F)C2)CC1)c1ccc2c(c1)-c1cncn1CCO2 [Compound 150A, N-((1s,4s)-4-((1r,3r)-3-Fluorocyclobutoxy)cyclohexyl)-5,6-dihydrobenzo[f]imidazo[1,5-d][1,4]oxazepine-10-carboxamide]	100 to 1000	> 100
O=C(NC1CCCC(C(F)(F)F)C1)c1ccc2c(c1)-c1cncn1CCO2 (stereo not drawn) [Compound 151A, N-(3-(Trifluoromethyl)cyclohexyl)-5,6-dihydrobenzo[f]imidazo[1,5-d][1,4]oxazepine-10-carboxamide]	< 30	1 to 10
O=C(N[C@H]1CC[C@H](OC2CC(F)(F)C2)CC1)c1ccc2c(c1)-c1cncn1CCO2 [Compound 152A, N-((1r,4r)-4-(3,3-Difluorocyclobutoxy)cyclohexyl)-5,6-dihydrobenzo[f]imidazo[1,5-d][1,4]oxazepine-10-carboxamide]	< 30	1 to 10
O=C(N[C@H]1CC[C@@H](OC2CC(F)(F)C2)CC1)c1ccc2c(c1)-c1cncn1CCO2 [Compound 153A, N-((1s,4s)-4-(3,3-Difluorocyclobutoxy)cyclohexyl)-5,6-dihydrobenzo[f]imidazo[1,5-d][1,4]oxazepine-10-carboxamide]	100 to 1000	10 to 100
O=C(NC1CCC(F)(F)CC1)c1cc2c(c(F)c1F)OCCn1cncc1-2 [Compound 154A, N-(4,4-Difluorocyclohexyl)-8,9-difluoro-5,6-dihydrobenzo[f]imidazo[1,5-d][1,4]oxazepine-10-carboxamide]	< 30	< 1
O=C(N[C@H]1CC[C@H](OCC(F)(F)F)CC1)c1cc(F)c2c(c1)-c1cncn1CCO2 [Compound 155A, 8-Fluoro-N-((1r,4r)-4-(2,2,2-trifluoroethoxy)cyclohexyl)-5,6-dihydrobenzo[f]imidazo[1,5-d][1,4]oxazepine-10-carboxamide]	< 30	< 1
O=C(N[C@H]1CC[C@@H](OCC(F)(F)F)CC1)c1cc(F)c2c(c1)-c1cncn1CCO2 [Compound 156A, 8-Fluoro-N-((1s,4s)-4-(2,2,2-trifluoroethoxy)cyclohexyl)-5,6-dihydrobenzo[f]imidazo[1,5-d][1,4]oxazepine-10-carboxamide]	30 to 100	10 to 100
